Residue numbers refer to the chain shown, from its start. Like-named read-outs stand apart in the source and are kept apart here.
Tests used:
WT-MγS [1] = molecular target: T1, WT-MγS (Mus musculus, UniProt O35486); assay: Dynamic light scattering, WT-MγS; format: biochemical; conditions: 400 μM drug; for Suppression of aggregate formation, DLS temperature scan: WT-MγS, 30–90 °C
T1 construct: made in house; host or cells: E. coli BL21(DE3) pLysS, pET17b vector
T1 sequence (O35486 1-178): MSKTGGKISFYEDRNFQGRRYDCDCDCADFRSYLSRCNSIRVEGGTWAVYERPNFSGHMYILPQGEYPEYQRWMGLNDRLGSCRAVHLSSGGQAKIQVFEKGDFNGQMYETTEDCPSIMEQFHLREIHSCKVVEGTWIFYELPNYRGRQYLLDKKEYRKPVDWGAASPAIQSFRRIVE
Experimental: (§1) Efficacy of our selected drugs in preventing the formation of protein aggregates was measured by DLS. Measurements were performed on a Wyatt DynaPro Nanostar. For DLS temperature scan experiment, pure and filtered protein samples (1 mg/ml in 10 mM sodium phosphate buffer, pH 7.2) with and without drugs (400 μM) were analyzed by DLS over a temperature range of 30 to 90 °C. Multiple scans were run for every data point, and the results represent average of individual scans. DLS spectra were also recorded for the samples at the end point of turbidity assay.

HγS_N143D = molecular target: T2, HγS_N143D (Homo sapiens, UniProt P22914, N144D); assay: Thermal aggregation (72 °C, 20 min) turbidity assay, HγS_N143D; format: biochemical; conditions: 20 min, read-out: % Suppression; for inhibition: HγS_N143D, 75 μM protein, 72 °C 20 min
T2 sequence (P22914 1-178 N144D): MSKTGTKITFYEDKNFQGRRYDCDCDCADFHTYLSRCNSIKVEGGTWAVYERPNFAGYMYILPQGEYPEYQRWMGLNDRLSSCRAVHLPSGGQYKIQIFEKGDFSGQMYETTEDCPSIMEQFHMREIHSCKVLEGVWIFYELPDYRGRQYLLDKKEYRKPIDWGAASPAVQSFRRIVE
Source text: (§2) For a review, see the study by Roskamp et al. ([38]). […] For the mechanistic studies below these two compounds together with either drug M, chosen mostly as negative control, or the entire set of six compounds were used for comparison purpose, whereby the words “drug” or “compound” are used interchangeably in the studies later.

OPJ-MγS = molecular target: T3, OPJ-MγS (Mus musculus, UniProt O35486, F10S); assay: Dynamic light scattering, OPJ-MγS; format: biochemical; conditions: 400 μM drug; for Suppression of aggregate formation, DLS temperature scan: OPJ-MγS, 30–90 °C; for Percent Mass Peak 1 / Percent Mass Peak 2 / Radius (nm) Peak 1 / Radius (nm) Peak 2: OPJ-MγS 45 μM, 72 °C 20 min
T3 construct: made in house; host or cells: E. coli BL21(DE3) pLysS, pET17b vector
T3 sequence (O35486 1-178 F10S): T1 sequence (O35486 1-178) with F10S
Experimental: as §1

WT-MγS [2] = molecular target: T1, WT-MγS; assay: bis-ANS binding study, WT-MγS; conditions: read-out: Percent inhibition of binding of bis-ANS, WT-MγS
Experimental: (§3) Extrinsic fluorescence spectra were recorded using bis-ANS, a well-known surface hydrophobicity probe. The spectra were recorded between 400 and 600 nm after exciting at 390 nm. The experiment was performed on 10 μM of HγD and MγS in 50 mM K3PO4 buffer with and without our candidate drugs (100 μM). Bis-ANS stock solution was prepared in methanol whose final percentage was maintained below 7 after mixing with proteins ([81]).

HγS_N14D = molecular target: T4, HγS_N14D (Homo sapiens, UniProt P22914, N15D); assay: Thermal aggregation (72 °C, 20 min) turbidity assay, HγS_N14D; format: biochemical; conditions: read-out: % Suppression; for inhibition: HγS_N14D, 75 μM protein, 72 °C 20 min
T4 sequence (P22914 1-178 N15D): T2 sequence (P22914 1-178 N144D) with N15D, D144N
Source text: as §2

WT-HγD = molecular target: T5, WT-HγD (Homo sapiens, UniProt P07320); assay: bis-ANS binding study, WT-HγD; conditions: 10 μM protein, 100 μM drug; read-out: Percent inhibition of binding of bis-ANS, WT-HγD
T5 construct: made in house; host or cells: E. coli BL21(DE3) pLysS, pET3d vector
T5 sequence (P07320 1-174): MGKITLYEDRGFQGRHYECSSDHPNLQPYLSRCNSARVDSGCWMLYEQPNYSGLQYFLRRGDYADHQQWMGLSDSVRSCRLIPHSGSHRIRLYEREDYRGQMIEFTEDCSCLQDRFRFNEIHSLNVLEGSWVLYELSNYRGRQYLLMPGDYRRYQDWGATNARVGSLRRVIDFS
Experimental: as §3

In the case of `Oc1c(Cl)cc(Cl)c(Cl)c1Cc1c(O)c(Cl)cc(Cl)c1Cl` [drug X, Hexachlorophene], the “Suppression of aggregate formation, DLS temperature scan” value (from here on “Suppression of aggregate formation”) (WT-MγS [1]) is reported as “mild suppressive effects”, the inhibition at 125 µM (HγS_N143D) is reported as 50% and the “Suppression of aggregate formation” value (OPJ-MγS) is reported as “mild suppressive effects”. The inhibition at 100 µM (WT-MγS [2]) was 10.17 ± 0.0014%, the inhibition at 125 µM (HγS_N14D) was 60% and the inhibition at 100 µM (WT-HγD) was 15.16 ± 0.001%.
With `Cc1cc(C(C#N)c2ccc(Cl)cc2)c(Cl)cc1NC(=O)c1cc(I)cc(I)c1O` (stereo not drawn) [drug C, Closantel] the “Percent Mass Peak 1” value (WT-MγS [1]; WT-MγS 45 μM, 72 °C 20 min) was 100%, the “Radius (nm) Peak 1” value (WT-MγS [1]; WT-MγS 45 μM, 72 °C 20 min) was 86.6 nm and the “Suppression of aggregate formation” value (WT-MγS [1]) was “strong suppressive effects”. The inhibition at 125 µM (HγS_N143D) was 52%, the “Percent Mass Peak 1” value (OPJ-MγS) was 32% and the “Percent Mass Peak 2” value (OPJ-MγS) was 68%. The “Radius (nm) Peak 1” value (OPJ-MγS) was 21.9 nm, the “Radius (nm) Peak 2” value (OPJ-MγS) was 358.7 nm and the “Suppression of aggregate formation” value (OPJ-MγS) was “strong suppressive effects”. It also gave an inhibition at 100 µM (WT-MγS [2]) of 27.16 ± 0.0011%, an inhibition at 125 µM (HγS_N14D) of 77% and an inhibition at 100 µM (WT-HγD) of 43.82 ± 0.0012%.
`O=C(O)CCCCCCCCCCCC[C@@H]1C=CCC1` [drug M, Chaulmoogric acid] was tested, and the “Percent Mass Peak 1” value (WT-MγS [1]; WT-MγS 45 μM, 72 °C 20 min) was 1.4%, the “Percent Mass Peak 2” value (WT-MγS [1]; WT-MγS 45 μM, 72 °C 20 min) was 98.6% and the “Radius (nm) Peak 1” value (WT-MγS [1]; WT-MγS 45 μM, 72 °C 20 min) was 622.0 nm. The “Radius (nm) Peak 2” value (WT-MγS [1]; WT-MγS 45 μM, 72 °C 20 min) was 6200.7 nm, the “Suppression of aggregate formation” value (WT-MγS [1]) was “no suppression” and the inhibition (HγS_N143D) was 25%. For the same molecule, the “Percent Mass Peak 1” value (OPJ-MγS) was 0%, the “Percent Mass Peak 2” value (OPJ-MγS) was 100% and the “Radius (nm) Peak 1” value (OPJ-MγS) was 53.1 nm. The “Radius (nm) Peak 2” value (OPJ-MγS) was 5594.1 nm, the “Suppression of aggregate formation” value (OPJ-MγS) was “no suppression” and the inhibition at 100 µM (WT-MγS [2]; 10 μM protein, 100 μM drug) was 1.95 ± 0.0017%. It also gave an inhibition (HγS_N14D) of 48% and an inhibition at 100 µM (WT-HγD) of 4.28 ± 0.0003%.
With `COC(=O)/C=C/C(C)=C\C=C\C(C)=C\C=C\C=C(C)\C=C\C=C(C)\C=C\C(=O)O` [drug B, Bixin] the “Suppression of aggregate formation” value (WT-MγS [1]) was “mild suppressive effects”, the inhibition (HγS_N143D) was 25% and the “Suppression of aggregate formation” value (OPJ-MγS) was “mild suppressive effects”. The inhibition at 100 µM (WT-MγS [2]; 10 μM protein, 100 μM drug) was 11.94 ± 0.0018%, the inhibition (HγS_N14D) was 51% and the inhibition at 100 µM (WT-HγD) was 27.86 ± 0.0009%.
In the case of `CC(C)=CCCC1(C)C=Cc2c(O)c3c(c(CC=C(C)C)c2O1)OC12C(=CC4CC1C(C)(C)OC2(C/C=C(/C)C(=O)O)C4O)C3=O` (stereo not drawn) [drug D, dihydrogambogic acid], the “Suppression of aggregate formation” value (WT-MγS [1]) is reported as “mild suppressive effects”, the inhibition at 125 µM (HγS_N143D) is reported as 30% and the “Suppression of aggregate formation” value (OPJ-MγS) is reported as “mild suppressive effects”. It also gave an inhibition at 100 µM (WT-MγS [2]) of 19.49 ± 0.0018%, an inhibition at 125 µM (HγS_N14D) of 76% and an inhibition at 100 µM (WT-HγD) of 34.5 ± 0.0006%.
In the case of `CC(C)=CCC[C@]1(C)C=Cc2c(O)c3c(c(CC=C(C)C)c2O1)O[C@]12C(=C[C@@H]4C[C@H]1C(C)(C)O[C@@]2(C/C=C(/C)C(=O)O)C4=O)C3=O` [drug G, Gambogic acid], the “Percent Mass Peak 1” value (WT-MγS [1]; WT-MγS 45 μM, 72 °C 20 min) is reported as 100%, the “Radius (nm) Peak 1” value (WT-MγS [1]; WT-MγS 45 μM, 72 °C 20 min) is reported as 77.9 nm and the “Suppression of aggregate formation” value (WT-MγS [1]) is reported as “strong suppressive effects”. The inhibition at 125 µM (HγS_N143D) was 48%, the “Percent Mass Peak 1” value (OPJ-MγS) was 100% and the “Radius (nm) Peak 1” value (OPJ-MγS) was 79.3 nm. For the same molecule, the “Suppression of aggregate formation” value (OPJ-MγS) was “strong suppressive effects”, the inhibition at 100 µM (WT-MγS [2]) was 40.72 ± 0.0008% and the inhibition at 125 µM (HγS_N14D) was 73%. The inhibition at 100 µM (WT-HγD) was 44.64 ± 0.0011%.

— PMC9525908, “α-Crystallin chaperone mimetic drugs inhibit lens γ-crystallin aggregation: Potential role for cataract prevention” (The Journal of Biological Chemistry, 2022)
